{"source": "paper PMC3444674", "about": "(Bioorganic & medicinal chemistry, 2012)", "format_in_all_cases": "biochemical", "key": {"[1]": {"biological_target": "T1, human DDAH-1 (Homo sapiens, UniProt O94760)", "T1 sequence (O94760 whole entry)": "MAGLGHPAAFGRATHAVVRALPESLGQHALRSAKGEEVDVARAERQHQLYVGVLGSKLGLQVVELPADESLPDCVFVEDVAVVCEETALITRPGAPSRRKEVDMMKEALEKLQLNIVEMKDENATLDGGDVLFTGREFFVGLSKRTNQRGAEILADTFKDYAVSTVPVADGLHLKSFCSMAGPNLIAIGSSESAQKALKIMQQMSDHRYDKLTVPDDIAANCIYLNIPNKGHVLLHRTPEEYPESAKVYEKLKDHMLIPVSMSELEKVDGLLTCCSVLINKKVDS", "assay": "Time-dependent inactivation of human DDAH-1"}, "[2]": {"biological_target": "T1, human DDAH-1", "assay": "Concentration-response and mode-of-inhibition assays for IC50 and Ki", "details": "for Hill Coefficient: concentration-response plot, substrate 50 µM; for Mode of inhibition: varying substrate and inhibitor, large effect on KM, not on kcat"}, "[3]": {"biological_target": "T1, human DDAH-1", "assay": "Reversibility upon dilution into excess substrate", "details": "enzyme-inhibitor mixture diluted into excess substrate"}, "[4]": {"biological_target": "T2, P. aeruginosa isoform of DDAH (Pseudomonas aeruginosa, UniProt Q9I4E3)", "T2 sequence (Q9I4E3 1-254)": "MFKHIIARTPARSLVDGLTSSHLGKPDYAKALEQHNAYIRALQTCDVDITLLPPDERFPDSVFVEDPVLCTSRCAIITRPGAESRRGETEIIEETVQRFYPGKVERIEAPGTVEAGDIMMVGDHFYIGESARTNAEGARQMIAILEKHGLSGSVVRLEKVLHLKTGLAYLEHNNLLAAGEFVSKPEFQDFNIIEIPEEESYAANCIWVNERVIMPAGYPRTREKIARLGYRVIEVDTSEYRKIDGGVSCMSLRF", "assay": "Inhibition of P. aeruginosa DDAH by reversible inhibitors", "details": "at concentrations up to 1 mM"}}}
{"smiles": "Cc1cc(Br)ccn1", "note": "[Compound 10, 2-methyl-4-bromopyridine]", "values": [{"measurement": "kinact/KI", "setting": "[1]", "result": "~0.05", "unit": "M⁻¹ s⁻¹"}]}
{"smiles": "OCc1cc(Cl)ccn1", "note": "[Compound 11, 2-hydroxymethyl-4-chloropyridine]", "values": [{"measurement": "kinact/KI", "setting": "[1]", "result": "~0.04", "unit": "M⁻¹ s⁻¹"}]}
{"smiles": "CCc1nc2ccccc2[nH]1", "note": "[Compound 12, 2-ethyl-benzimidazole]", "values": [{"measurement": "Hill Coefficient", "setting": "[2]", "result": "1.5 ± 0.2"}, {"measurement": "Mode of inhibition", "setting": "[2]", "result": "competitive"}, {"measurement": "Reversibility of inhibition", "setting": "[3]", "result": "full activity was rapidly regained"}, {"measurement": "Inhibition of P. aeruginosa DDAH", "setting": "[4]", "result": "did not show any inhibition"}]}
{"smiles": "NCCSc1nc2ccccc2o1", "note": "[Compound 13, 2-(1,3-benzoxazol-2-ylthio)ethanamine]", "values": [{"measurement": "Ligand Efficiency", "setting": "[2]; calculated from experimental Ki values", "result": "0.3 kcal / mol / heavy (non-hydrogen) atom"}, {"measurement": "Hill Coefficient", "setting": "[2]", "result": "1.0 ± 0.3"}, {"measurement": "Mode of inhibition", "setting": "[2]", "result": "competitive"}, {"measurement": "Reversibility of inhibition", "setting": "[3]", "result": "full activity was rapidly regained"}]}
